{"source": "patent US20110250132A1", "about": "“LIPOIC ACID METABOLITE: USEFUL FOR DRUG CARRIER, NANOPARTICLE CONJUGATE, IMAGING AND HYPERTHERMIA THERAPY” (priority 2010, published 2011)", "origin": "cited, not measured here", "key": {"[1]": {"settings": "reduced form with two —SH groups"}, "[2]": {"settings": "accumulates in all neuronal cell types"}, "cataracts": {"tested_on": "cataracts", "settings": "rats"}, "[3]": {"tested_on": "insulin-resistant rat skeletal muscle"}}}
{"smiles": "O=C(O)CCCC[C@@H](S)CCS", "note": "(racemic) [DHLA, dihydrolipoic acid]", "values": [{"measurement": "oxidation potential", "setting": "[1]", "value": "−0.29", "unit": "v"}]}
{"smiles": "O=C(O)CCCCC1CCSS1", "note": "(stereo not drawn) [Alpha-lipoic acid]", "values": [{"measurement": "blood-brain barrier crossing", "setting": "[2]", "value": "readily crosses the blood-brain barrier"}, {"measurement": "preventing iron accumulation", "setting": "lens epithelial cells", "value": "beneficial effects"}]}
{"smiles": "O=C(O)CCCC[C@@H]1CCSS1", "note": "[R-alpha-lipoic acid]", "values": [{"measurement": "preventing cataracts", "setting": "cataracts", "value": "more effective than racemic alpha-lipoic acid and S-alpha-lipoic acid"}, {"measurement": "enhancing insulin-stimulated glucose transport and metabolism", "setting": "[3]", "value": "more effective than S-alpha-lipoic acid"}]}
